Data published in the supplement of paper PMC10307832.

Tests used:
Test in all cases: relative viability (nuclei count vs DMSO), 5 days (fraction); higher = more cells survive
DM3189 + Olaparib = compound: C1CN(CCN1)C2=CC=C(C=C2)C3=CN4C(=C(C=N4)C5=CC=NC6=CC=CC=C56)N=C3 [DM3189] + O=C(c1cc(Cc2n[nH]c(=O)c3ccccc23)ccc1F)N1CCN(C(=O)C2CC2)CC1 [Olaparib] (partner 8 µM)
Summary of the method: (§1)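 Five library-drug doses in √10 steps were combined with a fixed anchor-drug dose, or a single drug was given alone, by pin tool to lung cancer cell lines in 1536-well plates the day after seeding. Nuclei were stained and counted after 5 days. Relative viability is the nuclei count in treated wells over that in vehicle wells, taken as the median of duplicate plates.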

DM3189 + Lapatinib = compound: C1CN(CCN1)C2=CC=C(C=C2)C3=CN4C(=C(C=N4)C5=CC=NC6=CC=CC=C56)N=C3 [DM3189] + CS(=O)(=O)CCNCc1ccc(-c2ccc3ncnc(Nc4ccc(OCc5cccc(F)c5)c(Cl)c4)c3c2)o1 [Lapatinib] (partner 2 µM)
Summary of the method: as §1

DM3189 + Phenformin = compound: C1CN(CCN1)C2=CC=C(C=C2)C3=CN4C(=C(C=N4)C5=CC=NC6=CC=CC=C56)N=C3 [DM3189] + N=C(N)NC(=N)NCCc1ccccc1 [Phenformin] (partner 250 µM)
Summary of the method: as §1

DM3189 + Pemetrexed = compound: C1CN(CCN1)C2=CC=C(C=C2)C3=CN4C(=C(C=N4)C5=CC=NC6=CC=CC=C56)N=C3 [DM3189] + Nc1nc2[nH]cc(CCc3ccc(C(=O)N[C@@H](CCC(=O)O)C(=O)O)cc3)c2c(=O)[nH]1 [Pemetrexed] (partner 0.2 µM)
Summary of the method: as §1

DM3189 + Palbociclib = compound: C1CN(CCN1)C2=CC=C(C=C2)C3=CN4C(=C(C=N4)C5=CC=NC6=CC=CC=C56)N=C3 [DM3189] + CC(=O)c1c(C)c2cnc(Nc3ccc(N4CCNCC4)cn3)nc2n(C2CCCC2)c1=O [Palbociclib] (partner 0.5 µM)
Summary of the method: as §1

Row | Cell Line | relative viability (DM3189 + Olaparib; first compound 0.08 µM) | relative viability (DM3189 + Olaparib; first compound 0.253 µM) | relative viability (DM3189 + Olaparib; first compound 0.8 µM) | relative viability (DM3189 + Olaparib; first compound 2.53 µM) | relative viability (DM3189 + Lapatinib; first compound 0.08 µM) | relative viability (DM3189 + Lapatinib; first compound 0.253 µM) | relative viability (DM3189 + Lapatinib; first compound 0.8 µM) | relative viability (DM3189 + Lapatinib; first compound 2.53 µM) | relative viability (DM3189 + Phenformin; first compound 0.08 µM) | relative viability (DM3189 + Phenformin; first compound 0.253 µM) | relative viability (DM3189 + Phenformin; first compound 0.8 µM) | relative viability (DM3189 + Phenformin; first compound 2.53 µM) | relative viability (DM3189 + Pemetrexed; first compound 0.08 µM) | relative viability (DM3189 + Pemetrexed; first compound 0.253 µM) | relative viability (DM3189 + Pemetrexed; first compound 0.8 µM) | relative viability (DM3189 + Pemetrexed; first compound 2.53 µM) | relative viability (DM3189 + Palbociclib; first compound 0.08 µM) | relative viability (DM3189 + Palbociclib; first compound 0.253 µM) | relative viability (DM3189 + Palbociclib; first compound 0.8 µM) | relative viability (DM3189 + Palbociclib; first compound 2.53 µM)
1 | LOU-NH91 | 0.921 | 0.896 | 0.76 | 0.92 | 0.76 | 0.704 | 0.544 | 0.605 | 0.886 | 0.689 | 0.706 | 0.747 | 0.375 | 0.407 | 0.331 | 0.368 | 0.514 | 0.53 | 0.501 | 0.562
2 | LU99A | 0.296 | 0.274 | – | 0.264 | 1.02 | 0.879 | – | 0.987 | 0.964 | 0.735 | – | 0.8 | 0.185 | 0.233 | – | 0.161 | 0.482 | 0.372 | – | 0.365
3 | NCI-H441 | 0.689 | 0.485 | 0.663 | 0.583 | – | – | – | – | 0.825 | 0.959 | 0.794 | 0.738 | 0.3 | 0.243 | 0.295 | 0.287 | 0.25 | 0.222 | 0.197 | 0.169
4 | NCI-H522 | 0.663 | 0.651 | 0.607 | 0.709 | – | – | – | – | 0.675 | 0.591 | 0.592 | 0.617 | 0.992 | 0.898 | 0.767 | 0.873 | 1.27 | 0.808 | 1.1 | 0.998
5 | NCI-H596 | 0.588 | 0.646 | 0.702 | 0.747 | 1.19 | 1.06 | 0.799 | 0.99 | 0.724 | 0.802 | 0.78 | 0.709 | 0.49 | 0.442 | 0.512 | 0.477 | – | – | – | –
6 | NCI-H727 | 0.696 | 0.69 | 0.649 | 0.764 | 0.829 | 0.626 | – | 0.781 | 0.628 | 0.517 | – | 0.533 | – | – | – | – | 0.581 | 0.581 | 0.579 | 0.608
7 | NCI-H1563 | – | – | – | – | 1.12 | 0.872 | 0.854 | 1.27 | 0.722 | 0.602 | 0.593 | 0.631 | 0.715 | 0.787 | 0.755 | 0.752 | – | – | – | –
8 | NCI-H1703 | 0.397 | 0.466 | 0.429 | 0.446 | 1.2 | 1.15 | 1.17 | 1.14 | – | – | – | – | – | – | – | – | – | – | – | –
9 | NCI-H2342 | 0.417 | 0.473 | 0.477 | 0.468 | – | – | – | – | 0.625 | 0.594 | 0.595 | 0.498 | 0.954 | 0.745 | 0.802 | 0.847 | 0.509 | 0.489 | 0.532 | 0.512
10 | SW 900 | 0.801 | – | 0.886 | 0.897 | – | – | – | – | 0.599 | 0.465 | 0.535 | 0.568 | 0.505 | – | 0.44 | 0.581 | 0.464 | – | 0.45 | 0.479
